Test results from patent publication US12479894B2, “Pea peptide with auxiliary hypoglycemic function and preparation method thereof” (CHINA NATIONAL RESEARCH INSTITUTE OF FOOD & FERMENTATION …, priority 2019, dated 2025).

Key:
Assay type in all cases: in vivo
Kunming mice [1] = assay: Detection of fasting blood glucose level in high-fat diet / streptozotocin diabetic mice; conditions: FIG. 11; gavage 28 days; pea peptides 1,600 mg/kg BW, metformin 185 mg/kg BW; AUC of days 1, 7, 14, 21, 28; versus model group
Protocol: (§1) Hypoglycemic functions of the pea peptide samples were evaluated by using the following method.
(§2) 110 Kunming mice were weighed and randomly divided into 11 groups in total: a blank group, a model group, a positive group (metformin 185 mg/kg BW), Example 1-low dose (800 mg/kg BW), Example 1-medium dose (1600 mg/kg BW), Example 1-high dose (3,200 mg/kg BW), Example 2 (1,600 mg/kg BW), Example 3 (1,600 mg/kg BW), Comparative Example 1 (,1600 mg/kg BW), Comparative Example 2 (1,600 mg/kg BW), and Comparative Example 3 (1,600 mg/kg BW), with 10 mice for each group. No any treatment was performed on the blank group; the remaining 10 groups were fed with high-fat diet for 30 days, and then intraperitoneally injected with streptozotocin to induce diabetes, for modeling; except for the blank group and the model group, the positive group was gavaged with metformin, and the experimental group was gavaged with corresponding pea peptide, the gavage was successively performed for 28 days, and the following indicators were detected:
a. Detection of Fasting Blood Glucose Level
After modeling, blood samples were collected from tail tips of 11 groups of mice on days 1, 7, 14, 21 and 28, respectively, to determine concentration of fasting blood glucose, and an area under curve, AUC, was calculated for each group based on the average value of 10 data.

Kunming mice [2] = assay: Detection of serum insulin level in high-fat diet / streptozotocin diabetic mice; conditions: FIG. 15, last day after 28 days gavage, pea peptides 1,600 mg/kg BW, metformin 185 mg/kg BW, versus model group
Protocol: as §1, §2
c. Detection of Insulin Level
On the last day of the experiment, all mice were killed, blood samples were collected and centrifuged to obtain serum, serum insulin concentrations (μg/L) were detected, and serum insulin concentration was calculated for each group based on the average value of 10 data.

Kunming mice [3] = assay: Detection of glucose tolerance level (oral glucose 2 g/kg) in high-fat diet / streptozotocin diabetic mice; conditions: FIG. 13; last day, glucose 2 g/kg by gavage 60 min after treatment; AUC 0-120 min; pea peptides 1,600 mg/kg BW, metformin 185 mg/kg BW; versus model group
Protocol: as §1, §2
b. Detection of Glucose Tolerance Level […]

## CN(C)C(=N)N=C(N)N [positive group, metformin]
Kunming mice [1]
  fasting blood glucose level: significantly reduced fasting blood glucose level
Kunming mice [2]
  insulin concentration: significantly improve the insulin concentrations
Kunming mice [3]
  blood glucose concentration (glucose tolerance capability): significantly reduce the blood glucose concentration
